Test results reported in US20260217701A1, “SELECTIVE BET INHIBITORS AND USES THEREOF” (Tay Therapeutics Limited, priority 2022, published 2026).
Values joined by “and” are separate entries in the source; they are usually repeats but may differ in a detail not shown here. Equal entries are not always repeated.

Test system: imiquimod-induced psoriasis
Experiment: Imiquimod-induced psoriasis model
Type: in vivo, mice
Details: for Body Weight D1: Day 1 (before treatment start on Day 8); for Body Weight D1 / Body Weight D3 / Body Weight D5 / Body Weight D7 / Body Weight D8 / Body Weight D9 / Body Weight D10 / Body Weight D11 / Body Weight D12 / Body Weight D13 / Body Weight D14 / Body Weight D15 / MBWC D1-D8 / MBWC D8-D15 / PASI Scores: individual animals; for Body Weight D3: Day 3 (before treatment start on Day 8); for Body Weight D5: Day 5 (before treatment start on Day 8); for Body Weight D7: Day 7 (before treatment start on Day 8); for Body Weight D8: Day 8 (first day of treatment); for Body Weight D9: Day 9; for Body Weight D10: Day 10; for Body Weight D11: Day 11; for Body Weight D12: Day 12; for Body Weight D13: Day 13; for Body Weight D14: Day 14; for Body Weight D15: Day 15; for MBWC D1-D8: body weight change Day 1 to Day 8 (before treatment); for MBWC D8-D15: body weight change Day 8 to Day 15 (treatment period); for PASI Scores: IMI + Compound A 1 mg/kg
Procedure, shortened: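 Psoriasis-like dermatitis induced in mice by daily dorsal imiquimod cream (Days 1–14); dosing with Compound A (5% DMSO/40% PEG-400/55% saline vehicle) began Day 8. Read-outs: summed 0–4 scores for erythema, induration and peeling daily to Day 15, plus terminal spleen ratio, behaviour and serum cytokines.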

[1] = IMI + 1 mg/kg, 1 mg/kg, in g (unit assumed)
[2] = IMI + 3 mg/kg, 3 mg/kg, in g (unit assumed)
[3] = IMI + 10 mg/kg, 10 mg/kg, in g (unit assumed)

SMILES: Cn1cc(-c2ccccc2)c(-c2cn(C)c(=O)c3[nH]c(-c4cnn(C(F)(F)F)c4)cc23)cc1=O [Compound A, 6-methyl-4-(1-methyl-2-oxo-5-phenyl-1,2-dihydropyridin-4-yl)-2-(1-(trifluoromethyl)-1H-pyrazol-4-yl)-1,6-dihydro-7H-pyrrolo[2,3-c]pyridin-7-one]
- PASI score improvement by day 15 (1 mg/kg): > 80%
- PASI score improvement by day 15 (3 mg/kg): > 90%
- symptoms by day 15 (representative images) (3 mg/kg): nearly entirely symptom free
- PASI-90 (change in PASI score ≥90%) by day 7 of treatment (3 mg/kg IP once daily): surpassed PASI-90
- PASI score improvement by day 15 (10 mg/kg): > 90%
- efficacy on the treatment of psoriasis (3 tested doses (1, 3, 10 mg/kg)): very good efficacy
- licking scoring (D15): effective in reducing licking scoring
- rearing behavior (D15, open field): restored rearing behavior
- Body Weight D1 [1]: 16.93 and 17.80 and 16.08 and 16.97 and 17.74 and 17.12 and 18.36 and 17.34
- Body Weight D3 [1]: 15.40 and 16.02 and 15.09 and 15.92 and 16.29 and 16.59 and 16.98 and 15.19
- Body Weight D5 [1]: 15.20 and 16.76 and 15.65 and 16.45 and 16.71 and 17.23 and 17.40 and 15.42
- Body Weight D7 [1]: 15.18 and 17.36 and 15.85 and 16.10 and 16.71 and 17.27 and 17.41 and 15.38
- Body Weight D8 [1]: 14.60 and 16.99 and 15.82 and 16.44 and 16.60 and 17.49 and 16.66 and 14.75
- Body Weight D9 [1]: 14.63 and 17.16 and 15.82 and 16.15 and 16.59 and 17.04 and 16.41 and 15.55
- Body Weight D10 [1]: 14.70 and 16.93 and 15.61 and 15.89 and 16.21 and 16.73 and 16.12 and 15.11
- Body Weight D11 [1]: 14.84 and 17.22 and 15.81 and 15.74 and 16.25 and 16.90 and 16.89 and 15.58
- Body Weight D12 (IMI + 1 mg/kg, 1 mg/kg): 14.87 and 16.99 (2×) and 15.46 and 15.54 and 17.30 and 17.06 and 15.66
- Body Weight D13 [1]: 15.05 and 17.40 and 16.20 and 15.94 and 16.75 and 17.05 and 16.69 and 15.46
- Body Weight D14 [1]: 15.56 and 17.50 and 16.49 and 16.50 and 17.20 and 17.24 and 16.86 and 16.35
- Body Weight D15 [1]: 15.74 and 17.76 and 16.69 and 17.05 and 17.07 and 17.34 and 17.23 and 16.41
- MBWC D1-D8 (IMI + 1 mg/kg, 1 mg/kg): −2.33 and −0.81 and −0.26 and −0.53 and −1.14 and 0.37 and −1.70 and −2.59
- MBWC D8-D15 (IMI + 1 mg/kg, 1 mg/kg): 1.14 and 0.77 and 0.87 and 0.61 and 0.47 and −0.15 and 0.57 and 1.66
- Body Weight D1 [2]: 17.31 and 16.98 and 19.05 and 16.34 and 18.16 and 17.71 and 15.90 and 17.04
- Body Weight D3 [2]: 15.94 and 14.69 and 16.63 and 15.29 and 15.93 and 15.05 and 14.65 and 15.53
- Body Weight D5 [2]: 16.84 and 15.15 and 16.74 and 15.65 and 17.11 and 16.06 and 16.09 and 15.35
- Body Weight D7 [2]: 16.64 and 14.71 and 16.54 and 14.84 and 17.16 and 15.73 and 15.75 and 15.45
- Body Weight D8 (IMI + 3 mg/kg, 3 mg/kg): 16.59 and 14.84 and 16.76 and 15.51 (2×) and 15.95 and 15.14 and 15.67
- Body Weight D9 [2]: 16.53 and 14.49 and 16.98 and 15.40 and 16.26 and 15.22 and 15.49 and 14.89
- Body Weight D10 [2]: 16.64 and 14.53 and 17.40 and 15.71 and 16.02 and 15.31 and 14.80 and 14.76
- Body Weight D11 [2]: 17.05 and 14.95 and 17.25 and 15.60 and 16.07 and 15.67 and 15.43 and 15.33
- Body Weight D12 [2]: 17.56 and 15.38 and 17.88 and 15.18 and 16.82 and 16.07 and 15.80 and 15.88
- Body Weight D13 [2]: 17.68 and 16.03 and 18.03 and 15.39 and 16.24 and 16.09 and 15.63 and 15.61
- Body Weight D14 [2]: 17.80 and 16.01 and 17.97 and 15.32 and 16.91 and 16.84 and 15.90 and 15.97
- Body Weight D15 (IMI + 3 mg/kg, 3 mg/kg): 18.44 (2×) and 16.47 (2×) and 15.82 and 16.95 and 16.91 and 16.13
- MBWC D1-D8 (IMI + 3 mg/kg, 3 mg/kg): −0.72 and −2.14 and −2.29 and −0.83 and −2.21 and −2.57 and −0.39 and −1.37
- MBWC D8-D15 (IMI + 3 mg/kg, 3 mg/kg): 1.85 and 1.63 and 1.68 and 0.31 and 1.00 and 1.77 and 0.62 and 0.80
- Body Weight D1 [3]: 17.49 and 17.30 and 19.10 and 19.20 and 19.68 and 17.68 and 16.28 and 17.45
- Body Weight D3 [3]: 15.01 and 14.91 and 17.43 and 18.70 and 15.42 and 17.04 and 13.99 and 14.57
- Body Weight D5 (IMI + 10 mg/kg, 10 mg/kg): 15.12 (2×) and 14.82 and 17.32 and 19.02 and 15.82 and 16.99 and 15.18
- Body Weight D7 [3]: 16.33 and 15.77 and 17.25 and 18.62 and 16.18 and 17.36 and 15.18 and 14.93
- Body Weight D8 [3]: 16.07 and 15.40 and 17.12 and 18.84 and 15.35 and 16.21 and 14.88 and 14.68
- Body Weight D9 [3]: 15.69 and 15.96 and 16.63 and 19.27 and 15.91 and 16.41 and 14.96 and 14.71
- Body Weight D10 [3]: 15.53 and 15.84 and 16.68 and 18.91 and 16.27 and 16.73 and 15.10 and 14.49
- Body Weight D11 (IMI + 10 mg/kg, 10 mg/kg): 15.74 and 15.58 (2×) and 16.84 and 19.15 and 16.81 and 17.05 and 15.32
- Body Weight D12 [3]: 15.83 and 15.88 and 17.03 and 19.25 and 17.13 and 17.19 and 16.27 and 15.58
- Body Weight D13 [3]: 17.35 and 16.03 and 17.55 and 19.51 and 16.98 and 17.10 and 16.02 and 15.65
- Body Weight D14 [3]: 16.58 and 16.42 and 17.59 and 19.36 and 17.68 and 17.84 and 16.59 and 15.62
- Body Weight D15 [3]: 16.60 and 16.43 and 18.35 and 19.39 and 17.81 and 18.26 and 16.77 and 15.96
- MBWC D1-D8 (IMI + 10 mg/kg, 10 mg/kg): −1.42 and −1.90 and −1.98 and −0.36 and −4.33 and −1.47 and −1.40 and −2.77
- MBWC D8-D15 (IMI + 10 mg/kg, 10 mg/kg): 0.53 and 1.03 and 1.23 and 0.55 and 2.46 and 2.05 and 1.89 and 1.28
- PASI Scores (D8 (day treatment started), 1 mg/kg): 8 (4×) and 6 (2×) and 7 (2×)
- PASI Scores (D9, 1 mg/kg): 7 (3×) and 6 (3×) and 9 and 8
- PASI Scores (D10, 1 mg/kg): 7 and 6 (3×) and 5 (3×) and 8
- PASI Scores (D11, 1 mg/kg): 6 (3×) and 4 (2×) and 5 and 8 and 7
